{"source": "patent EP0565593B1", "about": "“REDUCING PESTICIDAL INTERACTIONS IN CROPS” (priority 1990, dated 1992)", "key": {"Corn [1]": {"tested_on": "Corn", "experiment": "whole plant or invertebrate", "conditions": "Zea mays, iv; for inhibition at 20 g/ha: read-out: % Inhibition Corn, XRD-498 0.02 Kg/Ha alone"}, "Giant foxtail (GIFT)": {"tested_on": "Giant foxtail (GIFT)", "experiment": "whole plant or invertebrate", "type": "in vivo", "conditions": "for inhibition at 140 g/ha / inhibition at 20 g/ha: Setaria faberi, iv; for inhibition at 20 g/ha: XRD-498 0.02 Kg/Ha alone"}, "SJCA": {"tested_on": "SJCA", "experiment": "Greenhouse test Procedure IV: herbicide, biocide and antidote PPI, weed SJCA (Examples 53-55; Tables 52-54)", "type": "in vivo", "conditions": "Herbicide No. 21 0.14 Kg/Ha, all PPI", "description": "The test in this example paralleled that in Example 51, except the procedure was according to Procedure IV above and the herbicides used were No. 1 (MON-12000); No. 21 (XRD-498) and, again, No. 18 (PURSUIT); the biocide was, again, MOCAP®. Observations were taken thirteen (13) days after PPI treatment with biocide and antidote.\nThis test was identical to that in Example 52, except for use of a different biocide, DIAZINON (Biocide No. 5, a nematicide and soil insecticide).\nThis test was also identical to that in the preceding two examples, except that the biocide was malathion (No. 7, an insecticide).\nThis test was identical to the preceding ones, except the biocide was DPX-43898 (No. 6, active ingredient in FORTRESS® insecticide, a soil insecticide). Also, the observation time was fourteen (14) days after PPI initiation."}, "Velvetleaf (VELE)": {"tested_on": "Velvetleaf (VELE)", "experiment": "whole plant or invertebrate", "type": "in vivo, Abutilon theophrasti", "conditions": "for inhibition at 140 g/ha / inhibition at 20 g/ha: Abutilon theophrasti, iv; for inhibition at 20 g/ha: XRD-498 0.02 Kg/Ha alone"}, "Corn [2]": {"tested_on": "Corn"}, "[3]": {"conditions": "312 h, PPI, 13 days after PPI (Table 31)"}, "[4]": {"conditions": "336 h, PPI, 14 days after PPI (Table 34)"}, "[5]": {"conditions": "Herb. […], PPI, 13 days after planting"}, "[6]": {"conditions": "Herbicide No. 21 0.0175 Kg/Ha PPI alone, Table 23"}, "[7]": {"conditions": "Herbicide No. 21 0.0175 Kg/Ha PPI alone, Table 24"}, "[8]": {"conditions": "Herbicide No. 21 0.0175 Kg/Ha PPI alone, Table 25"}, "[9]": {"conditions": "Herbicide No. 21 0.0175 Kg/Ha PPI alone, Table 26"}, "[10]": {"conditions": "312 h, Herb. No. 21 0.14 kg/Ha alone, PPI, 13 days after planting"}, "[11]": {"conditions": "312 h, Table 51, Herbicide No. 21 0.14 Kg/Ha, where applied Biocide No. 8 8.96 kg/Ha and antidote 4.48 Kg/Ha, all PPI, observed 13 days after treatment"}, "[12]": {"conditions": "XRD-498 0.02 Kg/Ha PPI alone, 13 days after treatment"}, "[13]": {"conditions": "[…], PPI, 13 days after PPI (Table 31)"}, "[14]": {"conditions": "[…], PPI, 14 days after PPI (Table 34)"}}, "note": "Where “and” joins values, the source holds several entries; their conditions need not be identical. Equal entries are not always repeated. Where two headings read alike, the source gives them in different places."}
{"compound": "Cc1ccn2nc(S(=O)(=O)Nc3c(F)cccc3F)nc2n1", "note": "[Herbicide No. 21, 5-Methyl-N-(2,6-difluorophenyl)-1,2,4-triazolo[1,5-a]pyrimidine-2-sulfonamide, reference compound]", "values": [{"measurement": "inhibition at 140 g/ha", "setting": "Corn [1]; 312 h, read-out: % Inhibition Corn, Herb. No. 21 0.14 kg/Ha alone, PPI, 13 days after planting", "value": 5, "unit": "%"}, {"measurement": "inhibition at 140 g/ha", "setting": "Corn [1]; 312 h, read-out: % Inhibition Corn, Table 51, Herbicide No. 21 0.14 Kg/Ha, where applied Biocide No. 8 8.96 kg/Ha and antidote 4.48 Kg/Ha, all PPI, observed 13 days after treatment", "value": 10, "unit": "%"}, {"measurement": "inhibition at 140 g/ha", "setting": "Corn [1]; 312 h, read-out: % Inhibition Corn, Table 52, Herbicide No. 21 0.14 Kg/Ha, where applied Biocide No. 5 8.96 kg/Ha and antidote 4.48 Kg/Ha, all PPI, observed 13 days after treatment", "value": 5, "unit": "%"}, {"measurement": "inhibition at 140 g/ha", "setting": "Corn [1]; 312 h, read-out: % Inhibition Corn, Table 53, Herbicide No. 21 0.14 Kg/Ha, where applied Biocide No. 7 8.96 kg/Ha and antidote 4.48 Kg/Ha, all PPI, observed 13 days after treatment", "value": 10, "unit": "%"}, {"measurement": "inhibition at 20 g/ha", "setting": "Corn [1]; [3]", "value": 5, "unit": "%"}, {"measurement": "inhibition at 140 g/ha", "setting": "Corn [1]; 336 h, read-out: % Inhibition Corn, Table 54, Herbicide No. 21 0.14 Kg/Ha, where applied Biocide No. 6 8.96 kg/Ha and antidote 4.48 Kg/Ha, all PPI, observed 14 days after PPI initiation", "value": 10, "unit": "%"}, {"measurement": "inhibition at 20 g/ha", "setting": "Corn [1]; [4]", "value": 20, "unit": "%"}, {"measurement": "% Inhibition GIFT", "setting": "Giant foxtail (GIFT); [5]", "value": 95, "unit": "%"}, {"measurement": "% Inhibition GIFT", "setting": "Giant foxtail (GIFT); [6]", "value": 0, "unit": "%"}, {"measurement": "% Inhibition GIFT", "setting": "Giant foxtail (GIFT); [7]", "value": 0, "unit": "%"}, {"measurement": "% Inhibition GIFT", "setting": "Giant foxtail (GIFT); [8]", "value": 0, "unit": "%"}, {"measurement": "% Inhibition GIFT", "setting": "Giant foxtail (GIFT); [9]", "value": 0, "unit": "%"}, {"measurement": "inhibition at 140 g/ha", "setting": "Giant foxtail (GIFT); [10]", "value": 40, "unit": "%"}, {"measurement": "inhibition at 140 g/ha", "setting": "Giant foxtail (GIFT); [11]", "value": 70, "unit": "%"}, {"measurement": "inhibition at 20 g/ha", "setting": "Giant foxtail (GIFT); [3]", "value": 30, "unit": "%"}, {"measurement": "inhibition at 20 g/ha", "setting": "Giant foxtail (GIFT); [4]", "value": 35, "unit": "%"}, {"measurement": "% Inhibition GIFT", "setting": "Giant foxtail (GIFT); [12]", "value": 25, "unit": "%"}, {"measurement": "% Inhibition GIFT", "setting": "Giant foxtail (GIFT); [13]", "value": 75, "unit": "%"}, {"measurement": "% Inhibition GIFT", "setting": "Giant foxtail (GIFT); [14]", "value": 65, "unit": "%"}, {"measurement": "% Inhibition GIFT", "setting": "Giant foxtail (GIFT); in vivo", "value": "60% and 75% and 90%"}, {"measurement": "inhibition at 140 g/ha", "setting": "SJCA; 312 h, Table 52, where applied Biocide No. 5 8.96 kg/Ha and antidote 4.48 Kg/Ha, observed 13 days after treatment", "value": 70, "unit": "%"}, {"measurement": "inhibition at 140 g/ha", "setting": "SJCA; 312 h, Table 53, where applied Biocide No. 7 8.96 kg/Ha and antidote 4.48 Kg/Ha, observed 13 days after treatment", "value": 75, "unit": "%"}, {"measurement": "inhibition at 140 g/ha", "setting": "SJCA; 336 h, Table 54, where applied Biocide No. 6 8.96 kg/Ha and antidote 4.48 Kg/Ha, observed 14 days after PPI initiation", "value": 60, "unit": "%"}, {"measurement": "inhibition at 140 g/ha", "setting": "Velvetleaf (VELE); [10]", "value": 75, "unit": "%"}, {"measurement": "inhibition at 140 g/ha", "setting": "Velvetleaf (VELE); [11]", "value": 80, "unit": "%"}, {"measurement": "inhibition at 140 g/ha", "setting": "Velvetleaf (VELE); 312 h, Table 52, Herbicide No. 21 0.14 Kg/Ha, where applied Biocide No. 5 8.96 kg/Ha and antidote 4.48 Kg/Ha, all PPI, observed 13 days after treatment", "value": 80, "unit": "%"}, {"measurement": "inhibition at 140 g/ha", "setting": "Velvetleaf (VELE); 312 h, Table 53, Herbicide No. 21 0.14 Kg/Ha, where applied Biocide No. 7 8.96 kg/Ha and antidote 4.48 Kg/Ha, all PPI, observed 13 days after treatment", "value": 85, "unit": "%"}, {"measurement": "inhibition at 20 g/ha", "setting": "Velvetleaf (VELE); [3]", "value": 80, "unit": "%"}, {"measurement": "inhibition at 140 g/ha", "setting": "Velvetleaf (VELE); 336 h, Table 54, Herbicide No. 21 0.14 Kg/Ha, where applied Biocide No. 6 8.96 kg/Ha and antidote 4.48 Kg/Ha, all PPI, observed 14 days after PPI initiation", "value": 85, "unit": "%"}, {"measurement": "inhibition at 20 g/ha", "setting": "Velvetleaf (VELE); [4]", "value": 80, "unit": "%"}, {"measurement": "% Inhibition VELE", "setting": "Velvetleaf (VELE); [6]", "value": 60, "unit": "%"}, {"measurement": "% Inhibition VELE", "setting": "Velvetleaf (VELE); [7]", "value": 45, "unit": "%"}, {"measurement": "% Inhibition VELE", "setting": "Velvetleaf (VELE); [8]", "value": 60, "unit": "%"}, {"measurement": "% Inhibition VELE", "setting": "Velvetleaf (VELE); [9]", "value": 50, "unit": "%"}, {"measurement": "% Inhibition VELE", "setting": "Velvetleaf (VELE); [12]", "value": 90, "unit": "%"}, {"measurement": "% Inhibition VELE", "setting": "Velvetleaf (VELE); [14]", "value": 90, "unit": "%"}, {"measurement": "% Inhibition VELE", "setting": "Velvetleaf (VELE); in vivo", "value": "70% and 75%"}, {"measurement": "% Inhibition VELE", "setting": "Velvetleaf (VELE); in vivo, listed as XRD-498", "value": 90, "unit": "%"}, {"measurement": "% Inhibition Corn", "setting": "Corn [2]; [5]", "value": 75, "unit": "%"}, {"measurement": "% Inhibition Corn", "setting": "Corn [2]; [6]", "value": 0, "unit": "%"}, {"measurement": "% Inhibition Corn", "setting": "Corn [2]; [7]", "value": 0, "unit": "%"}, {"measurement": "% Inhibition Corn", "setting": "Corn [2]; [8]", "value": 0, "unit": "%"}, {"measurement": "% Inhibition Corn", "setting": "Corn [2]; [9]", "value": 5, "unit": "%"}, {"measurement": "% Inhibition Corn", "setting": "Corn [2]; [12]", "value": 15, "unit": "%"}, {"measurement": "corn injury", "setting": "Corn [2]; XRD-498 with OP insecticides, Examples 24-27", "value": "30-55%"}, {"measurement": "corn injury", "setting": "Corn [2]; XRD-498 without insecticide, Examples 24-27", "value": "0-5%"}, {"measurement": "% Inhibition Corn", "setting": "Corn [2]; [13]", "value": 70, "unit": "%"}, {"measurement": "% Inhibition Corn", "setting": "Corn [2]; [14]", "value": 75, "unit": "%"}, {"measurement": "corn injury", "setting": "Corn [2]; herbicide used in conjunction with COUNTER, Tables 29-37", "value": "55-70%"}, {"measurement": "corn injury", "setting": "Corn [2]; herbicide without COUNTER, Tables 29-37", "value": "0-5%"}, {"measurement": "% Inhibition Corn", "setting": "Corn [2]; in vivo", "value": "50% and 30% and 55%"}, {"measurement": "% Inhibition Corn", "setting": "Corn [2]; in vivo, listed as XRD-498", "value": 75, "unit": "%"}]}
